US20260365646A1, “AKT1 MODULATORS” (Alterome Therapeutics, Inc., priority 2022, published 2026)

molecular target: T1, full length AKT E17K (Homo sapiens, UniProt P31749, E17K); assay: NanoBRET Target Engagement (TE) Intracellular Kinase Assay; format: cell-based; details: not given
T1 construct: host or cells: HEK-293 (ATCC CRL-1573)
Source text: The NanoBRET™ Target Engagement (TE) Intracellular Kinase Assays are based on the NanoBRET™ System (Promega Corporation), an energy transfer technique designed to measure molecular proximity in living cells. The NanoBRET™ TE Assays measure the apparent affinity of test compounds by competitive displacement of the NanoBRET™ tracer compound, which is a cell permeable molecule engineered to be reversibly bound to a NanoLuc® luciferase-kinase fusion expressed in cells. For compound screening, when a test compound binds to the selected kinase, the BRET signal is attenuated. […] All cells were evaluated for viability prior to transfection and optimization of the transfection was done prior to experimentation. […] Following transfection, cells were washed and resuspended in Opti-MEM. NanoBRET assays were performed in white, 384-well plates (Corning) at a density of 2×10^5 cells/well. All example compounds were prepared as concentrated stock solutions in DMSO (Sigma-Aldrich). Compounds are dissolved in DMSO to make 10 mM stock solution. […] A Labcyte ECHO 550 compound dispenser was used to facilitate compound transfer directly to cells. Cells were equilibrated for 2 hr with energy transfer probes and example compound prior to BRET measurements. […] For target engagement analysis, the energy transfer probes were added to the cells at concentrations optimized for the target in question (AKT E17K). Following compound incubation, NanoBRET NanoGlo Substrate (Promega Cat #Ni57D) and Extracellular Nanoluc Inhibitor (Promega Cat #N235C) was added according to the manufacturer's recommended protocol, and luminescence was measured on Envision Reader (Perkin Elmer) Multimode Luminometer equipped with 450 nm BPfilter (donor) and 600 nm LPfilter (acceptor), using 0.5 s integration time. Milli-BRET units (mBU) are calculated by multiplying the raw BRET values by 1000. Apparent tracer affinity values (EC50) were determined using the sigmoidal dose-response (variable slope). Competitive displacement data were then plotted and data were fit to determine the EC50 value for each example compound.

T1 sequence (P31749 whole entry E17K): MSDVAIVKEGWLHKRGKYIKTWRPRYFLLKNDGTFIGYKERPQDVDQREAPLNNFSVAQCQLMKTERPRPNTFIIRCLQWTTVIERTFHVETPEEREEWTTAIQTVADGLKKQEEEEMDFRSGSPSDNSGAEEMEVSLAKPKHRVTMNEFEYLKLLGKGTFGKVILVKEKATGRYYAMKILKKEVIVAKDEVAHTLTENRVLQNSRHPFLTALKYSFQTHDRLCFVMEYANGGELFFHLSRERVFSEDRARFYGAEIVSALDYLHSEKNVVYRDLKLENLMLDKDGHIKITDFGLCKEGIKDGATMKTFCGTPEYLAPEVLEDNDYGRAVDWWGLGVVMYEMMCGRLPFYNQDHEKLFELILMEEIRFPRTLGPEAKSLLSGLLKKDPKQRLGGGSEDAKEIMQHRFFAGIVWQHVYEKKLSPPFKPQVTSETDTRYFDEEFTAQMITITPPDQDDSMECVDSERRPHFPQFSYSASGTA

SMILES | EC50
Nc1ncccc1-c1nc2ccc(-c3ccccc3)nc2n1-c1ccc(CN2CCN(c3c(OC4CCCC4)c(=O)c3=O)CC2)cc1 [Example 26, 3-(4-(4-(2-(2-aminopyridin-3-yl)-5-phenyl-3H-imidazo[4,5-b]pyridin-3-yl)benzyl)piperazin-1-yl)-4-(cyclopentyloxy)cyclobut-3-ene-1,2-dione] | > 600 nM
COc1c(NC2CCN(C(=O)c3ccc(-n4c(-c5cccnc5N)nc5ccc(-c6ccccc6)nc54)cc3)CC2)c(=O)c1=O [Example 28, 3-((1-(4-(2-(2-Aminopyridin-3-yl)-5-phenyl-3H-imidazo[4,5-b]pyridin-3-yl)benzoyl)piperidin-4-yl)amino)-4-methoxycyclobut-3-ene-1,2-dione] | > 600 nM
COc1c(N[C@H]2CCCN(Cc3ccc(-n4c(-c5cccnc5N)nc5ccc(-c6ccccc6)nc54)cc3)C2)c(=O)c1=O [Example 29, (S)-3-((1-(4-(2-(2-Aminopyridin-3-yl)-5-phenyl-3H-imidazo[4,5-b]pyridin-3-yl)benzyl)piperidin-3-yl)amino)-4-methoxycyclobut-3-ene-1,2-dione] | 60 to 600 nM
COc1c(N(C)C2CCN(Cc3ccc(-n4c(-c5cccnc5N)nc5cc(-c6ccccc6)cnc54)cc3)CC2)c(=O)c1=O [Example 32, 3-((1-(4-(2-(2-Aminopyridin-3-yl)-6-phenyl-3H-imidazo[4,5-b]pyridin-3-yl)benzyl)piperidin-4-yl)(methyl)amino)-4-methoxycyclobut-3-ene-1,2-dione] | 60 to 600 nM
COc1c(Nc2cccc(C(=O)NCc3ccc(-n4c(-c5cccnc5N)nc5ccc(-c6ccccc6)nc54)cc3)c2)c(=O)c1=O [Example 33, N-(4-(2-(2-aminopyridin-3-yl)-5-phenyl-3H-imidazo[4,5-b]pyridin-3-yl)benzyl)-3-((2-methoxy-3,4-dioxocyclobut-1-en-1-yl)amino)benzamide] | 60 to 600 nM
Nc1ncccc1-c1nc2ccc(-c3ccccc3)nc2n1-c1ccc(CNC(=O)c2cccc(Nc3c(O)c(=O)c3=O)c2)cc1 [Example 43, N-(4-(2-(2-Aminopyridin-3-yl)-5-phenyl-3H-imidazo[4,5-b]pyridin-3-yl)benzyl)-3-((2-hydroxy-3,4-dioxocyclobut-1-en-1-yl)amino)benzamide] | > 600 nM
Nc1ncccc1-c1nc2ccc(-c3ccccc3)nc2n1-c1ccc(CN2CCC(Nc3c(S)c(=O)c3=O)CC2)cc1 [Example 44, 3-((1-(4-(2-(2-aminopyridin-3-yl)-5-phenyl-3H-imidazo[4,5-b]pyridin-3-yl)benzyl)piperidin-4-yl)amino)-4-mercaptocyclobut-3-ene-1,2-dione] | 60 to 600 nM

Now from value to compound:

EC50 | SMILES
15 to 60 nM | [2H]C([2H])([2H])Oc1c(N2CCN(Cc3ccc(-n4c(-c5cccnc5N)nc5ccc(-c6ccccc6)nc54)cc3)CC2)c(=O)c1=O [Example 23, 3-(4-(4-(2-(2-Aminopyridin-3-yl)-5-phenyl-3H-imidazo[4,5-b]pyridin-3-yl)benzyl)piperazin-1-yl)-4-(methoxy-d3)cyclobut-3-ene-1,2-dione]
60 to 600 nM | CCOc1c(N2CCN(Cc3ccc(-n4c(-c5cccnc5N)nc5ccc(-c6ccccc6)nc54)cc3)CC2)c(=O)c1=O [Example 24, 3-(4-(4-(2-(2-Aminopyridin-3-yl)-5-phenyl-3H-imidazo[4,5-b]pyridin-3-yl)benzyl)piperazin-1-yl)-4-ethoxycyclobut-3-ene-1,2-dione]
> 600 nM | CC(C)Oc1c(N2CCN(Cc3ccc(-n4c(-c5cccnc5N)nc5ccc(-c6ccccc6)nc54)cc3)CC2)c(=O)c1=O [Example 25, 3-(4-(4-(2-(2-Aminopyridin-3-yl)-5-phenyl-3H-imidazo[4,5-b]pyridin-3-yl)benzyl)piperazin-1-yl)-4-isopropoxycyclobut-3-ene-1,2-dione]
15 to 60 nM | COc1c(N2CCCC3(CCN(Cc4ccc(-n5c(-c6cccnc6N)nc6ccc(-c7ccccc7)nc65)cc4)CC3)C2)c(=O)c1=O [Example 31, 3-(9-(4-(2-(2-Aminopyridin-3-yl)-5-phenyl-3H-imidazo[4,5-b]pyridin-3-yl)benzyl)-2,9-diazaspiro[5.5]undecan-2-yl)-4-methoxycyclobut-3-ene-1,2-dione]
15 to 60 nM | COc1c(N2CCN(Cc3ccc(-n4c(-c5cccnc5N)nc5ccc(-c6ccccc6)nc54)cc3)C[C@@H]2C)c(=O)c1=O [Example 36, (S)-3-(4-(4-(2-(2-Aminopyridin-3-yl)-5-phenyl-3H-imidazo[4,5-b]pyridin-3-yl)benzyl)-2-methylpiperazin-1-yl)-4-methoxycyclobut-3-ene-1,2-dione]
15 to 60 nM | COc1c(N2CCN(Cc3ccc(-n4c(-c5cccnc5N)nc5ccc(-c6ccccc6)nc54)cc3)CC23CC3)c(=O)c1=O [Example 37, 3-(7-(4-(2-(2-Aminopyridin-3-yl)-5-phenyl-3H-imidazo[4,5-b]pyridin-3-yl)benzyl)-4,7-diazaspiro[2.5]octan-4-yl)-4-methoxycyclobut-3-ene-1,2-dione]
> 600 nM | COc1c(N2CC3(CN(Cc4ccc(-n5c(-c6cccnc6N)nc6ccc(-c7ccccc7)nc65)cc4)C3)C2)c(=O)c1=O [Example 41, 3-(6-(4-(2-(2-Aminopyridin-3-yl)-5-phenyl-3H-imidazo[4,5-b]pyridin-3-yl)benzyl)-2,6-diazaspiro[3.3]heptan-2-yl)-4-methoxycyclobut-3-ene-1,2-dione]
15 to 60 nM | COc1c(N2CCC3(CN(Cc4ccc(-n5c(-c6cccnc6N)nc6ccc(-c7ccccc7)nc65)cc4)C3)C2)c(=O)c1=O [Example 42, 3-(2-(4-(2-(2-Aminopyridin-3-yl)-5-phenyl-3H-imidazo[4,5-b]pyridin-3-yl)benzyl)-2,6-diazaspiro[3.4]octan-6-yl)-4-methoxycyclobut-3-ene-1,2-dione]

same assay, conditions: read-out: NanoBRET AKT1E17K EC50; HEK-293 cells transfected with NanoLuc-AKT E17K; competitive displacement of NanoBRET tracer; 2 hr equilibration; 10-point 3-fold dilution

SMILES | EC50
COc1c(N(C)C2CCN(Cc3ccc(-n4c(-c5cccnc5N)nc5ccc(-c6ccccc6)nc54)cc3)CC2)c(=O)c1=O [Example 27, 3-((1-(4-(2-(2-aminopyridin-3-yl)-5-phenyl-3H-imidazo[4,5-b]pyridin-3-yl)benzyl)piperidin-4-yl)(methyl)amino)-4-methoxycyclobut-3-ene-1,2-dione] | < 15 nM
COc1c(N[C@H]2CCN(Cc3ccc(-n4c(-c5cccnc5N)nc5ccc(-c6ccccc6)nc54)cc3)C2)c(=O)c1=O [Example 30, (S)-3-((1-(4-(2-(2-Aminopyridin-3-yl)-5-phenyl-3H-imidazo[4,5-b]pyridin-3-yl)benzyl)pyrrolidin-3-yl)amino)-4-methoxycyclobut-3-ene-1,2-dione] | < 15 nM
COc1c(N[C@@H]2CCCN(Cc3ccc(-n4c(-c5cccnc5N)nc5ccc(-c6ccccc6)nc54)cc3)C2)c(=O)c1=O [Example 34, (R)-3-((1-(4-(2-(2-aminopyridin-3-yl)-5-phenyl-3H-imidazo[4,5-b]pyridin-3-yl)benzyl)piperidin-3-yl)amino)-4-methoxycyclobut-3-ene-1,2-dione] | < 15 nM
CCSc1c(NC2CCN(Cc3ccc(-n4c(-c5cccnc5N)nc5ccc(-c6ccccc6)nc54)cc3)CC2)c(=O)c1=O [Example 39, 3-((1-(4-(2-(2-Aminopyridin-3-yl)-5-phenyl-3H-imidazo[4,5-b]pyridin-3-yl)benzyl)piperidin-4-yl)amino)-4-(ethylthio)cyclobut-3-ene-1,2-dione] | < 15 nM
CCOc1c(N2CC3(CN(Cc4ccc(-n5c(-c6cccnc6N)nc6ccc(-c7ccccc7)nc65)cc4)C3)C2)c(=O)c1=O [Example 40, 3-(6-(4-(2-(2-Aminopyridin-3-yl)-5-phenyl-3H-imidazo[4,5-b]pyridin-3-yl)benzyl)-2,6-diazaspiro[3.3]heptan-2-yl)-4-ethoxycyclobut-3-ene-1,2-dione] | < 15 nM
CSc1c(NC2CCN(Cc3ccc(-n4c(-c5cccnc5N)nc5ccc(-c6ccccc6)nc54)cc3)CC2)c(=O)c1=O [Example 45, 3-((1-(4-(2-(2-aminopyridin-3-yl)-5-phenyl-3H-imidazo[4,5-b]pyridin-3-yl)benzyl)piperidin-4-yl)amino)-4-(methylthio)cyclobut-3-ene-1,2-dione] | < 15 nM

Other lines, results leading:

EC50 | SMILES
< 15 nM | COc1c(NC2CC3(CCN(Cc4ccc(-n5c(-c6cccnc6N)nc6ccc(-c7ccccc7)nc65)cc4)CC3)C2)c(=O)c1=O [Example 35, 3-((7-(4-(2-(2-Aminopyridin-3-yl)-5-phenyl-3H-imidazo[4,5-b]pyridin-3-yl)benzyl)-7-azaspiro[3.5]nonan-2-yl)amino)-4-methoxycyclobut-3-ene-1,2-dione]
< 15 nM | COc1c(N2CCCN(Cc3ccc(-n4c(-c5cccnc5N)nc5ccc(-c6ccccc6)nc54)cc3)CC2)c(=O)c1=O [Example 38, 3-(4-(4-(2-(2-Aminopyridin-3-yl)-5-phenyl-3H-imidazo[4,5-b]pyridin-3-yl)benzyl)-1,4-diazepan-1-yl)-4-methoxycyclobut-3-ene-1,2-dione]
